Assay results taken from patent publication US20170258769A1, “A Method for Topically Treating Actinic Keratosis on the Trunk (except chest) and Extremities with Ingenol 3-(3,5-diethylisoxazole-4-carboxylate)” (LEO Laboratories Limited, priority 2014, published 2017).

Legend:
[1] = Part 1: dose escalation trial, gel once daily for two consecutive days, dose limiting toxicity based on local skin reactions; type: in vivo, human
Excerpt: Local skin reactions (LSRs) occur sometimes in the treated area. Often LSRs are quantified by a scale evaluating the following types of skin reactions: erythema, flaking/scaling, crusting, swelling, vasiculation/postulation, and erosion/ulceration which are categorized into categories 0-4 depending on the severity of the reactions. The present invention utilizes data obtained from a previous dose escalation trial, wherein maximal tolerated doses were identified.
In the trial pre-defined grades of LSRs will constitute Dose Limiting Toxicity.
Dose Limiting toxicity (DLT) is defined one or more of the following LSRs: • crusting Grade 4 • Erosion/ulceration Grade 4 • vesiculation/postulation Grade 4 or
Two or more of the following LSRs: • Crusting Grade 3 • Swelling grade 4 • Erosion/ulceration Grade 3 • vesiculation/postulation Grade 3 or • other clinically relevant signs or symptoms observed, which the Investigator judges to be counted as a DLT. Maximum tolerated dose (MTD) is declared as dose level at which less than 4 subjects out of experience a DLT of cohort of 12 subjects.
Part 1 was a dose escalation study conducted with a once daily application of trial medication for two consecutive days and continued until the MTD was identified.
Dose escalation proceeded if the safety and tolerability data of the subject up to day 8 was reviewed and considered satisfactory. The treatment consisted of once daily treatment for 2 consecutive days. Up to 5 different doses may be investigated in cohorts of 1 subject. The number of subjects in each cohort depended on the number of observed DLTs. However, the MTD was always be confirmed in a cohort of 12 subjects. […] Part 2 is a study of the efficacy of the 0.1% dose identified in part 1 in a three day regimen.
Part 1: Trial medication, ingenol 3-(3,5-diethylisoxazole-4-carboxylate) gel, will be applied to the treatment area once daily for two consecutive days until the maximum tolerated dose has been reached for each formulation. Up to five different doses of active compound in gel may be investigated in cohorts 12 subjects. […]

dermal tumours = experiment: in vivo studies in mice, effects on dermal tumours
Excerpt: The exact mechanism of action of ingenol 3-(3,5-diethylisoxazole-4-carboxylate) continues to be investigated, but it is believed that ingenol 3-(3,5-diethylisoxazole-4-carboxylate) has a dual mechanism of action inducing cell death as well as stimulation of immune response.

actinic keratosis = experiment: Part 2: open-label trial, 0.1% gel once daily for three consecutive days on trunk (except chest) and extremities; type: in vivo, human
Excerpt: The outcome for Part 2 is safety and efficacy in a once daily application for three consecutive days on the trunk (except chest) and extremities. The efficacy in treating of the AK will be measured as reduction in AK count in the treated area of lesions which are not considered hyperkeratotic/hypertrophic.
In parallel the efficacy in treating of the AK will be measured as reduction in AK count in the treated area of lesions which are considered hyperkeratotic/hypertrophic.
The reduction in AK count will be performed at week 4 and 8 no matter the type of lesion. Also complete clearance of AKs in the treated area which are not considered hyperkeratotic/hypertrophic at week 8 will be measured.
The trial medication applied is preferably a gel. The gel formulation comprises: isopropyl alcohol, hydroxyethyl cellulose, benzyl alcohol, citric acid monohydrate, sodium citrate dehydrate and water and active compound in a 0.1% concentration. For this particular trial, the dosing is two unit dose tubes daily, each containing 0.67 g.
To qualify for part 2 of the trial, the subjects must have 5-20 clinically visible and discrete AKs within a contiguous are of approximately 250 cm^2 area on the trunk (except chest) and extremities. In addition to the requirement of 5-20 clinically typical, visible and discrete AKs within the selected treatment area, subjects may also have visible and discrete hyperkeratotic/hypertrophic lesions in this area. The subjects will be treated with a dose of 0.1% as a once daily three consecutive days treatment and followed for 8 weeks.
The trial consists of an initial part, where 18 subjects will be treated on the trunk (except chest) and extremities. […] As this is a safety trial, it is considered justified to conduct this clinical trial as an open-label, uncontrolled trial. An early safety and tolerability evaluation will be performed following the 3 days treatment. If safety and tolerability is found acceptable by the Early Data Review Committee, and additional 44 subjects will be enrolled in order to expand safety observations and obtain an estimate of treatment efficacy.
LSRs are evaluated at all visits following visit 1. AK lesion counts are performed on Visit 2, 6 and 7.
tactile) assessment of the extent of photo-damage in the treatment area with respect to 1) fine wrinkling, 2) coarse wrinkling, 3) mottled pigmentation, 4) roughness, 5) sallowness, 6) skin laxity, and 7) telangiectasia. Severity for each of these characteristics will be on a 5-point scale: None (0), Mild (1), Moderate (2), Severe (3), Extreme (4).
At Visit 7 (Week 8) the Investigator will make an overall clinical (visual and tactile) assessment of the subject's photo-damage change from baseline in the treatment area (including an integrated assessment of fine wrinkling, coarse wrinkling, mottled pigmentation, roughness, sallowness, skin laxity, and telangiectasia based on the subject's appearance at the baseline visit).
At Visit 7 (Week 8), the subjects will complete a self-assessment questionnaire evaluating the change in the 1) overall appearance of the skin and 2) overall feel of the skin after treatment. The scoring will be on a 5-point scale: Much worsened, somewhat worsened, no change, somewhat improved, much improved.
The secondary response criteria will be analysed for the full analysis set and for the per protocol analysis set. The ratio of number of AK lesions at week 8 relative to baseline, excluding lesions identified at base line as hyperkeratotic/hypertrophic lesions, will be tabulated by treatment group. Separately for each treatment group, the rate and corresponding 95% confidence interval will be estimated from a negative binomial regression on the AK count at week 8 with the log baseline value as an offset variable. The same analysis will be performed for the subgroup of lesions identified as hyperkeratotic/hypertrophic at baseline. […]

[2] = highest dose 0.1%, once daily for 2 consecutive days

## CCc1noc(CC)c1C(=O)O[C@H]1C(C)=C[C@]23C(=O)[C@@H](C=C(CO)[C@@H](O)[C@]12O)[C@H]1[C@@H](C[C@H]3C)C1(C)C [ingenol 3-(3,5-diethylisoxazole-4-carboxylate)]
[1]; [2]
  dose limiting toxicity (DLT): no real DLT was identified
  tolerability: well tolerated
[1]; selected dose (0.1%), two days dosing regimen
  tolerability with respect to LSRs and application site reaction: well tolerated
Dermal tumours
  efficacy in eliminating dermal tumours, compared with ingenol mebutate: more efficacious than ingenol mebutate
Actinic keratosis; 0.1% gel, once daily three consecutive days
  side-effects: acceptable
Actinic keratosis; 0.1% gel, once daily three consecutive days, approx. 250 cm^2 area, week 8, 62 patients
  reduction in AK count: 59%
Actinic keratosis; 0.1% gel, once daily three consecutive days, week 8
  complete clearance: 23%
Actinic keratosis; 0.1% gel, once daily three consecutive days, rapid decline thereafter
  time at which side-effects maximize: 4 days
Actinic keratosis; 0.1% gel, three day regimen
  cosmetic outcome of the treatment: good
Actinic keratosis; investigator assessment, fraction of patients
  patients with photo damage improved: two-thirds
Actinic keratosis; self-assessment by subject
  subjects reporting improvement in appearance and feel: more than 70%
